One experiment has as its target human MLKL (full length) (Homo sapiens (Human), UniProt Q8NB16). Kind of experiment: KINOMEscan binding assay, human MLKL (full length). Conditions: equilibrium dissociation constant. How it is done:
(§1) Binding affinity of the test compounds for human MLKL (full length), mouse MLKL (full length), human RIPK1 and human RIPK3 was determined using the KINOMEscan™ technology developed by DiscoverX (USA; http://www.discoverx.com). The assay was conducted according to manufacturer instructions.
(§2) Kinase assays. For most assays, kinase-tagged T7 phage strains were grown in parallel in 24-well blocks in an E. coli host derived from the BL21 strain. E. coli were grown to log-phase and infected with T7 phage from a frozen stock (multiplicity of infection=0.4) and incubated with shaking at 32° C. until lysis (90-150 minutes). The lysates were centrifuged (6,000×g) and filtered (0.2 μm) to remove cell debris. The remaining kinases were produced in HEK-293 cells and subsequently tagged with DNA for qPCR detection. […] The liganded beads were blocked with excess biotin and washed with blocking buffer (SeaBlock (Pierce), 1% BSA, 0.05% Tween 20, 1 mM DTT) to remove unbound ligand and to reduce non-specific phage binding. […] All reactions were performed in polypropylene 384-well plates in a final volume of 20 μL. […] The kinase concentration in the eluates was measured by qPCR.
(§3) An 11-point 3-fold serial dilution of each test compound was prepared in 100% DMSO at 100× final test concentration and subsequently diluted to 1× in the assay (final DMSO concentration=1%). Most Kos were determined using a compound top concentration=30,000 nM.
(§4) KD for each test compound was calculated with a standard dose-response curve using the Hill equation (equation (1)): […]
(§5) The Hill Slope was set to −1.
(§6) Curves were fitted using a non-linear least square fit with the Levenberg-Marquardt algorithm.

In the next experiment the test system is U937 cells. Put plainly: Counter screen: U937 cell viability without TSQ cocktail (off-target effect). Conditions: Homo sapiens, U-937, compound without TSQ cocktail, read-out: Off-target effect (IC50 cell-based assay). On the set-up: species or system human. How it is done: (§7) • Cell Line ID: U937 human histiocytic leukemia cell line. • Cell Concentration (cells/well): Final cell density is 20000 cells per well. • Cell growth medium: HT-RPMI medium+7.4% Fetal Bovine Serum (FBS). Cells are cultured in Corning 150 cm^2 tissue culture flasks with vented caps at 37° C./5% CO2. • Incubation: Plates were incubated at 37° C./5% CO2 in a humidified incubator for 48 hours following addition of compounds and death stimuli (TSQ cocktail). • Compound concentration: 36 μM starting concentration, 1:3 dilution, 10 point • DMSO final concentration (% v/v): 0.3%. Compounds in TSQ Cocktail (T: TNF; S: Smac Mimetic; Q: Q-VD-OPh) and their Final Concentrations: • hTNF-Fc (100 ng/ml)—produced by standard procedures as shown in Bossen et al., J. Biol. Chem., 2006, 281(20), 13964-13971. • Compound A (500 nM) —Smac mimetic, Tetralogic and SYNthesis med chem • Q-VD-OPh (10 μM) —MP Biomedicals
(§8) The cellular assay was carried out according to the following steps: • 1. Each well was prepared by sequential addition of: • a. DMSO (control; columns 1-2 and 23-24) or compound in DMSO—addition was performed using acoustic transfer of nL volumes of stock compound to give final test concentrations of 36, 12, 4, 1.3, 0.44, 0.148, 0.049, 0.016, 0.005 and 0.002 μM. All wells were backfilled with DMSO to a final total volume in the well of 100 nL. • b. Following compound/DMSO addition in step (a), 40 μL of cell suspension (5×10^5 cells/mL) was added to provide a final cell concentration of 20,000 cells per well, and • c. Following cell addition in step (b), 10 μL of 5×TSQ cocktail (except to positive controls; columns 1 and 23) was added to each well. • 2. After 48 hours, plate was removed from the 37° C. incubator and equilibrated to room temperature for 45 minutes. • 3. 15 μL of room temperature CellTitre-Glo2™ (Promega™) was added to each well. • 4. Shook plates for 2 minutes (˜600 rpm) and incubated at room temperature for 15 minutes to allow signal to stabilise. • 5. Read luminescence readout on a plate reader.
(§9) 10 point titration curves were fitted with the 4 parameter logistic nonlinear regression model and the IC50 reported reflect the inflection point of the curve for curve fitting.
(§10) • Assay involving the TSQ cocktail (T: TNF; S: Smac mimetic; Q: Q-VD-OPh): TSQ treatment ensures that cells specifically undergo necroptotic cell death. TNF activates the TNF receptor, Smac mimetic directs the signal away from proinflammatory signaling and toward the RIPK1/RIPK3-mediated cell death pathways, and Q-VD-OPh ensures that the apoptotic response is blocked leaving only the programmed necrosis response. The compounds' activity (solution in DMSO) tested in this TSQ-induced assay was evaluated by determining the number of viable cells in culture by measuring the amount of ATP present as measured by CelltiterGlo. • Counter screen: In parallel, all compounds were tested for their ability to affect cell viability. The same U937 cells were treated with compound in DMSO without the TSQ cocktail. This counter screen enabled evaluation of off-target effects. In this case, cell viability was measured by CelltiterGlo.
For orientation: A counterscreen serves to expose hits that act by an unwanted route or on another target.

The target of a further experiment is human RIPK3 (Homo sapiens (Human), UniProt Q9Y572). Put plainly: KINOMEscan binding assay, human RIPK3. Conditions: equilibrium dissociation constant. How it is done: as §1, §2, §3, §4, §5, §6
For the next experiment, the target named is human RIPK1 (Homo sapiens (Human), UniProt Q13546). Put plainly: KINOMEscan binding assay, human RIPK1. Conditions: equilibrium dissociation constant. How it is done: as §1, §2, §3, §4, §5, §6
Experiment [1] deals with U937 human histiocytic leukemia cell line. Put plainly: Inhibition of TSQ induced necroptosis in U937 cells (CellTitre-Glo). Conditions: Homo sapiens, U-937, TSQ cocktail (TNF, Smac mimetic, Q-VD-OPh), 48 hours, read-out: Inhibition of TSQ-induced necroptosis (IC50 cell-based assay). The protocol: Cellular Assay: Screening Compounds for Inhibition of TSQ Induced Necroptosis, 384 Well Plate Format.
as §7, §8
Percent viability was calculated for each compound according to equation (2): […]
as §9, §10

human MLKL (full length), sequence (Q8NB16 whole entry): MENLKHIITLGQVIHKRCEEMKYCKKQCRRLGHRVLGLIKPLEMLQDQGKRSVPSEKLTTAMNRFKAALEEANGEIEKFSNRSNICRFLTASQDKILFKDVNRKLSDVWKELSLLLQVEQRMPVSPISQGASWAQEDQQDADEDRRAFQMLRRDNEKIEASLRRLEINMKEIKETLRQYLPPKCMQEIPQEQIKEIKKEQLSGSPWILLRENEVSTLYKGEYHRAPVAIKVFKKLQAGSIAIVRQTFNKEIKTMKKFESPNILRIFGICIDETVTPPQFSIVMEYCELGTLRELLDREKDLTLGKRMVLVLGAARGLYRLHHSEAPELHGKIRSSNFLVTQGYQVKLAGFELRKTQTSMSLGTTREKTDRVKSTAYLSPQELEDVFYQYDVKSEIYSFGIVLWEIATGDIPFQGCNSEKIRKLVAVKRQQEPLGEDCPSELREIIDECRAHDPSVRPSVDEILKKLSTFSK
human RIPK1, sequence (Q13546 whole entry): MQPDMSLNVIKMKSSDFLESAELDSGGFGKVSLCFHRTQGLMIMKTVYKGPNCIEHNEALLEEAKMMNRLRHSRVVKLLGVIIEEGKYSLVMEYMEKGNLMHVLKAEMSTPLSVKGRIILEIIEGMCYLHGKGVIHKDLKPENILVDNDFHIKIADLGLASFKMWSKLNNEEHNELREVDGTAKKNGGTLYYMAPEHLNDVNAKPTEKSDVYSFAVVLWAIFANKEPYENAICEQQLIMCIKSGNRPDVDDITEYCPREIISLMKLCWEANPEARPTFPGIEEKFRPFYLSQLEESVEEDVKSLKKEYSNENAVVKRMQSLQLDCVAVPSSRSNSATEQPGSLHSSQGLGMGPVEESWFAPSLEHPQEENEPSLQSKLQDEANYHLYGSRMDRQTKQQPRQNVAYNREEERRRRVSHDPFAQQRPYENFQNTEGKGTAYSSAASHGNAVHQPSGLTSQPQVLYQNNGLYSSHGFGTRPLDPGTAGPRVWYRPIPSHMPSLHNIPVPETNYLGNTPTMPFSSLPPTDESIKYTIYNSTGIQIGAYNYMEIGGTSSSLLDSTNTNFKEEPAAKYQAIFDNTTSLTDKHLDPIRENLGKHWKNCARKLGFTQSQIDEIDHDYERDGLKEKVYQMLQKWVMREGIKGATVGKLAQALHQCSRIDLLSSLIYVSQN
human RIPK3, sequence (Q9Y572 whole entry): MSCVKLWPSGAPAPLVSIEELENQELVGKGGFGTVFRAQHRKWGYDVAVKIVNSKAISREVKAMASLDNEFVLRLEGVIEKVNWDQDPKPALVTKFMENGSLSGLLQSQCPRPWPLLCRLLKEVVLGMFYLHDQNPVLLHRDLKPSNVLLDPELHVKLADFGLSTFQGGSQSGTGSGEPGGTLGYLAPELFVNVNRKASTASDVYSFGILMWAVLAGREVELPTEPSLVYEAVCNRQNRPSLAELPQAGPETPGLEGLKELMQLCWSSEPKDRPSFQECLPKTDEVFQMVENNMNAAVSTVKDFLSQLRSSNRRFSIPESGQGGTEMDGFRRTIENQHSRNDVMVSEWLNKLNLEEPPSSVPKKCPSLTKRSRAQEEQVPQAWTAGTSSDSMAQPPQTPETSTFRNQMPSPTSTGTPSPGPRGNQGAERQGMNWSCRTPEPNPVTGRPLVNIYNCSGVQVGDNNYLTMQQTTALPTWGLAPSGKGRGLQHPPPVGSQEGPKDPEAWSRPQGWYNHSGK

As to `COCC(Oc1cc(-c2nn(C)c3c(-c4cnn(C5CCOCC5)c4)cnc(N)c23)ccc1NS(=O)(=O)C(F)F)c1ccc(F)cc1` (racemic) [Compound 102, N-(4-(4-amino-1-methyl-7-(1-(tetrahydro-2H-pyran-4-yl)-1H-pyrazol-4-yl)-1H-pyrazolo[4,3-c]pyridin-3-yl)-2-(1-(4-fluorophenyl)-2-methoxyethoxy)phenyl)-1,1-difluoromethanesulfonamide], the Kd (usually the equilibrium constant for the complex coming apart) on human MLKL (full length) is under 0.001 µM; at human RIPK3 it was over 10 µM; at human RIPK1 it was over 10 µM. For the same compound, the half-maximal inhibitory concentration (IC50) (commonly the concentration at which inhibition is half-maximal) in the experiment on U937 cells was over 10 µM; in experiment [1], 0.01 to 1 µM.
Regarding `CCS(=O)(=O)Nc1ccc(-c2nn(C)c3c(-c4cccnc4)cnc(N)c23)cc1OCc1ccc(F)cc1` [Compound 1, N-(4-(4-amino-1-methyl-7-(pyridin-3-yl)-1H-pyrazolo[4,3-c]pyridin-3-yl)-2-((4-fluorobenzyl)oxy)phenyl)ethanesulfonamide], the IC50 in the experiment on U937 cells was over 10 µM; in experiment [1], 1 to 10 µM. The Kd on human RIPK3 and at human RIPK1 was over 10 µM in each case.
On to `Cn1cc(-c2cnc(N)c3c(-c4ccc(NS(=O)(=O)C(F)F)c(OCc5ccc(F)cc5)c4)nn(C)c23)cn1` [Compound 16, N-(4-(4-amino-1-methyl-7-(1-methyl-1H-pyrazol-4-yl)-1H-pyrazolo[4,3-c]pyridin-3-yl)-2-((4-fluorobenzyl)oxy)phenyl)-1,1-difluoromethanesulfonamide], for which the equilibrium dissociation constant (Kd) was under 0.001 µM on human MLKL (full length), over 10 µM on human RIPK3 and over 10 µM at human RIPK1. In addition, the IC50 with U937 cells is over 10 µM; in experiment [1], 1 to 10 µM.
With `C[C@H](Oc1cc(-c2nn(C)c3c(C4=CCN(C)CC4)cnc(N)c23)ccc1NS(=O)(=O)C(F)F)c1ccc(F)cc1` [Compound 21, (S)-N-(4-(4-amino-1-methyl-7-(1-methyl-1,2,3,6-tetrahydropyridin-4-yl)-1H-pyrazolo[4,3-c]pyridin-3-yl)-2-(1-(4-fluorophenyl)ethoxy)phenyl)-1,1-difluoromethanesulfonamide], the values for the equilibrium dissociation constant (Kd) on human MLKL (full length), on human RIPK3 and at human RIPK1 were under 0.001 µM, over 10 µM and over 10 µM, respectively. The IC50 in the experiment on U937 cells was over 10 µM; in experiment [1], 1 to 10 µM.
For `C[C@H](Oc1cc(-c2nn(C)c3c(-c4ccnc(C(F)(F)F)c4)cnc(N)c23)ccc1NS(=O)(=O)C(F)F)c1ccc(F)cc1` [Compound 23, (S)-N-(4-(4-amino-1-methyl-7-(2-(trifluoromethyl)pyridin-4-yl)-1H-pyrazolo[4,3-c]pyridin-3-yl)-2-(1-(4-fluorophenyl)ethoxy)phenyl)-1,1-difluoromethanesulfonamide], the Kd at human MLKL (full length) is 0.001 to 0.1 µM; on human RIPK3, over 10 µM; on human RIPK1, over 10 µM. Moreover, the half-inhibitory concentration (IC50) was over 10 µM in the experiment on U937 cells and 1 to 10 µM in experiment [1].
As to `Cc1cc(-c2cnc(N)c3c(-c4ccc(NS(=O)(=O)C(F)F)c(O[C@@H](C)c5ccc(F)cc5)c4)nn(C)c23)ccn1` [Compound 24, (S)-N-(4-(4-amino-1-methyl-7-(2-methylpyridin-4-yl)-1H-pyrazolo[4,3-c]pyridin-3-yl)-2-(1-(4-fluorophenyl)ethoxy)phenyl)-1,1-difluoromethanesulfonamide], the dissociation constant Kd at human MLKL (full length) is under 0.001 µM; on human RIPK3 it was over 10 µM; on human RIPK1, over 10 µM. The values for the IC50 (in the experiment on U937 cells; in experiment [1]) were over 10 µM and 0.01 to 1 µM, respectively.
Turning to `C[C@H](Oc1cc(-c2nn(C)c3c(-c4cccnc4)cnc(N)c23)ccc1NS(=O)(=O)C(F)F)c1ccc(F)cc1` [Compound 25, (S)-N-(4-(4-amino-1-methyl-7-(pyridin-3-yl)-1H-pyrazolo[4,3-c]pyridin-3-yl)-2-(1-(4-fluorophenyl)ethoxy)phenyl)-1,1-difluoromethanesulfonamide], the values for the dissociation constant (Kd) on human MLKL (full length), on human RIPK3 and at human RIPK1 were under 0.001 µM, over 10 µM and over 10 µM, respectively. Also, the IC50 was over 10 µM in the experiment with U937 cells and 0.01 to 1 µM in experiment [1].
For the compound `Cc1ccc(-c2cnc(N)c3c(-c4ccc(NS(=O)(=O)C(F)F)c(O[C@@H](C)c5ccc(F)cc5)c4)nn(C)c23)cn1` [Compound 26, (S)-N-(4-(4-amino-1-methyl-7-(6-methylpyridin-3-yl)-1H-pyrazolo[4,3-c]pyridin-3-yl)-2-(1-(4-fluorophenyl)ethoxy)phenyl)-1,1-difluoromethanesulfonamide], the dissociation constant (Kd) at human MLKL (full length) was under 0.001 µM; at human RIPK3, over 10 µM; on human RIPK1, over 10 µM. Moreover, the results for the IC50 (with U937 cells; in experiment [1]) were over 10 µM and 0.01 to 1 µM, respectively.
As to `COc1cc(-c2cnc(N)c3c(-c4ccc(NS(=O)(=O)C(F)F)c(O[C@@H](C)c5ccc(F)cc5)c4)nn(C)c23)ccn1` [Compound 27, (S)-N-(4-(4-amino-7-(2-methoxypyridin-4-yl)-1-methyl-1H-pyrazolo[4,3-c]pyridin-3-yl)-2-(1-(4-fluorophenyl)ethoxy)phenyl)-1,1-difluoromethanesulfonamide], the Kd on human MLKL (full length) is 0.001 to 0.1 µM; at human RIPK3, over 10 µM; on human RIPK1, over 10 µM. Also, the IC50 in the experiment on U937 cells is over 10 µM; in experiment [1], 0.01 to 1 µM.
Turning to `COc1ccc(-c2cnc(N)c3c(-c4ccc(NS(=O)(=O)C(F)F)c(O[C@@H](C)c5ccc(F)cc5)c4)nn(C)c23)cn1` [Compound 28, (S)-N-(4-(4-amino-7-(6-methoxypyridin-3-yl)-1-methyl-1H-pyrazolo[4,3-c]pyridin-3-yl)-2-(1-(4-fluorophenyl)ethoxy)phenyl)-1,1-difluoromethanesulfonamide], the dissociation constant (Kd) is under 0.001 µM on human MLKL (full length), over 10 µM at human RIPK3 and over 10 µM on human RIPK1. In addition, the concentration for half-maximal inhibition (IC50) with U937 cells was over 10 µM; in experiment [1] it was 0.01 to 1 µM.
Take `C[C@H](Oc1cc(-c2nn(C)c3c(-c4cnn(C5CCC(C(=O)O)CC5)c4)cnc(N)c23)ccc1NS(=O)(=O)C(F)F)c1ccc(F)cc1` (stereo partly drawn) [Compound 173, 4-(4-{4-amino-3-[4-(difluoromethanesulfonamido)-3-[(1S)-1-(4-fluorophenyl)ethoxy]phenyl]-1-methyl-1H-pyrazolo[4,3-c]pyridin-7-yl}-1H-pyrazol-1-yl)cyclohexane-1-carboxylic acid]: the values for the IC50 (in the experiment with U937 cells; in experiment [1]) were over 10 µM and 1 to 10 µM, respectively.

These data come from patent publication US20250059188A1, “ARYLSULPHONAMIDE COMPOUNDS” (Anaxis Pharma Pty Ltd, priority 2021, published 2025).
